For data set [1], the system named is Homo sapiens. Kind of data set: Pharmacokinetic parameters for diffferent drugs or their active metabolite, following single oral or intravenous (IV) administration to subjects of different health conditions. The format is ADME, organism-based. On the set-up: dose 50 mg, dose 10 mg, route oral. As to conditions: in vivo.
The subject of data set [2] is Homo sapiens. The data set is described as follows: Pharmacokinetic parameters for different drugs, or their active metabolite following multiple oral or intravenous administration to subjects of varying health conditions. It counts as ADME, organism-based. As to conditions: in vivo. On the set-up: dose 30 mg, dose 135 mg, route oral.
[3] abbreviates: po, dosed compound id 69, dosed compound name IRBESARTAN, gender male, regimen Single dose, tissue Plasma.
[4] abbreviates: po, dosed compound id 66, dosed compound name CHLORTHALIDONE, regimen Single dose, tissue Plasma.
The mark [5] stands for this setting: po, dose 10 mg, dosed compound id 63, dosed compound name BACLOFEN, gender male, regimen Single dose, tissue Plasma.
The mark [6] stands for this setting: po, dosed compound id 63, dosed compound name BACLOFEN, gender male, regimen Single dose, tissue Plasma.
Setting [7] is: iv, dosed compound id 67, dosed compound name AZATHIOPRINE, regimen Single dose, tissue Plasma.

As for `Sc1ncnc2nc[nH]c12` [MERCAPTOPURINE ANHYDROUS], the F in the data set with Homo sapiens [1] (po, dosed compound id 621, dosed compound name AZATHIOPRINE, regimen Single dose, tissue Plasma) was found to be 60%. Further, in the data set with Homo sapiens [2] (dose 135 mg, dosed compound id 621, dosed compound name AZATHIOPRINE, regimen Once daily, route oral, tissue Plasma), the Tmax is 1 to 2 h. Also, in the data set with Homo sapiens [2] (dosed compound id 621, dosed compound name AZATHIOPRINE, regimen Once daily, tissue Plasma), the peak concentration (Cmax) was in the range of 20 to 90 ng/mL.
As for `CCCCC1=NC2(CCCC2)C(=O)N1Cc1ccc(-c2ccccc2-c2nnn[nH]2)cc1` [IRBESARTAN], the Tmax in the data set with Homo sapiens [1] (po, dose 50 mg, dosed compound id 69, dosed compound name IRBESARTAN, gender male, regimen Single dose, tissue Plasma) was 1.2 h. In the data set with Homo sapiens [1] (setting [3]), the CL was 2.12 mL/min/kg, the Cmax worked out at 1300 ng/mL, the Vd amounted to 2.9 L/kg and the bioavailability is 60 to 80%. The t1/2 in the data set with Homo sapiens [1] (setting [3]) was determined as 13 h. Also, the Excretion in the data set on Homo sapiens [1] (po, dosed compound id 69, dosed compound name IRBESARTAN, gender male, regimen Single dose, tissue Urine) is reported as 2.2%.
In the case of `C[C@]12C=CC(=O)C=C1CC[C@@H]1[C@@H]2[C@@H](O)C[C@@]2(C)[C@H]1CC[C@]2(O)C(=O)CO` [PREDNISOLONE], in the data set on Homo sapiens [1] (po), the CL is given as 1 mL/min/kg, the Excretion is 26%, the Vd was 0.42 L/kg and the t1/2 was 2.2 h. Besides, in the data set on Homo sapiens [2], the Cmax is 458 ng/mL and the Tmax worked out at 1.5 h.
Turning to `NS(=O)(=O)c1cc(C2(O)NC(=O)c3ccccc32)ccc1Cl` (configuration not stated) [CHLORTHALIDONE], the Excretion with Homo sapiens [1] (po, at 50 mg, dosed compound id 66, dosed compound name CHLORTHALIDONE, regimen Single dose, tissue Urine) came to 65%. In addition, in the data set with Homo sapiens [1] (po, dose 50 mg, dosed compound id 66, dosed compound name CHLORTHALIDONE, regimen Single dose, tissue Plasma), the Tmax was determined as 13.8 h. Further, the t1/2 with Homo sapiens [1] (po, dosed compound id 66, dosed compound name CHLORTHALIDONE, regimen Single dose, tissue Blood) was determined as 47 h. For the same molecule, in the data set with Homo sapiens [1] (setting [4]), the CL is reported as 0.04 mL/min/kg, the Cmax was determined as 3700 ng/mL, the F turned out to be 64% and the Vd was 0.14 L/kg.
As to `NCC(CC(=O)O)c1ccc(Cl)cc1` (configuration not stated) [BACLOFEN], the Vd in the data set on Homo sapiens [1] (other, dosed compound id 63, dosed compound name BACLOFEN, gender male, regimen Single dose, route intestinal infusion, tissue Plasma) is reported as 0.81 L/kg. Besides, in the data set on Homo sapiens [1] (other, dosed compound id 63, dosed compound name BACLOFEN, gender male, regimen Single dose, route intestinal infusion, tissue Urine), the CL is on record as 2.72 mL/min/kg. In the data set with Homo sapiens [1] (setting [5]), the Tmax came out at 1 h and the t1/2 is 3.75 h. In the data set with Homo sapiens [1] (setting [6]), the Cmax is 160 ng/mL and the F stood at 70%.
`Cn1cnc([N+](=O)[O-])c1Sc1ncnc2nc[nH]c12` [AZATHIOPRINE]: in the data set with Homo sapiens [1] (setting [7]), the CL came to 57 mL/min/kg, the Vd came to 0.81 L/kg and the t1/2 turned out to be 0.16 h.
